Laboratory results published in patent US7083809B2, “Purified cytokine inhibitory factor” (Arkion Life Sciences, LLC, priority 2002, dated 2006).

Legend:
murine macrophage = details: cited from earlier work
[1] = 20 cancer patients, intravenous pretreatment followed by intravenous endotoxin; cited from earlier work
PGE2 biosynthesis = test: Inhibition of PGE2 biosynthesis in LPS-stimulated RAW 264.7 cells (EIA); type: cell-based, mouse
Description: The assay began with overnight induction of COX-2 through mitogenic (LPS) stimulation of RAW 264.7 cell monolayers. The cell monolayers were then exposed to a test article (e.g. indomethacin) for 30 min at 37° C., and then an exogenous source of arachidonic acid was provided to the system. COX1 and COX2 (in addition to a PGE2 specific synthetase) converted the exogenous arachidonic acid to PGE2. Prostaglandin E2 in the culture medium was then quantified by a commercial EIA system. When less PGE2 was recovered from culture medium containing a test article than was recovered from culture medium alone, the condition was labeled inhibition.
Assay procedure: 5×10^6 Cells in DMEM medium were seeded and incubated in a 37° C., 5% CO2 incubator overnight. At approximately 24 h growth of cells seeded on day 1 (usually 90–100% confluence), growth medium was aseptically decanted and discarded. 10 ml sterile PBSA was gently pipetted into flasks against a non-growth surface, and the cells were washed twice. 10 ml DMEM containing LPS (2 ng/ml) was added to the tested flasks. Flasks were placed in a 37° C., 5% CO2 incubator overnight for 16 h.
At 16 h post-initial LPS exposure, growth medium was aseptically removed (suction) and discarded. 10 ml sterile PBSA was gently pipetted into flasks against a non-growth surface, and the cells were washed twice. Cells were incubated in the presence of 2 ml PBSA, 2 ml positive control drugs, or 2 ml yolk lipids sample (1.0 mg/ml) at 37° C. After 30 min incubation, 222 μl of 300 ΞM arachidonic acid was added to every flask. Cells were incubated for an additional 15 min at 37° C. in presence of the 30 μM arachidonic acid. After the 15 min incubation, 50 μl of 1 mg/ml indomethacin was added to contents of flask to stop the reaction. All fluids from flasks were collected into appropriately labeled polypropylene tubes.
Prostaglandin E2 was assayed with the commercial ELISA kit (Amersham RPN222) at room temperature following the standard protocol.

IL-1β = test: LPS-induced cytokine mRNA inhibition assay in THP1 monocytes (RT-PCR); type: cell-based, human; details: THP1 cells
TNF-α = test: as above; type: cell-based, human; details: THP1 cells, culture medium

For `CCCCCCCCCCCCCC(=O)N[C@H]1[C@H](OC[C@H]2O[C@H](OC(CC(=O)O)CC(=O)O)[C@H](NC(=O)CCCCCCCCCCCCC)[C@@H](OC(=O)CNC(=O)CCCCCCCCCCC)[C@@H]2O)O[C@H](CO)[C@@H](OP(=O)(O)O)[C@@H]1OC(=O)CNC(=O)CCCCCCCCCCC` [DT-5461a], the “Induction of TNF-α, IL-1β, IL-6, and GM-CSF” value (murine macrophage) is given as “induces”.

For `CCCCCCCCCCC[C@@H](O)CC(=O)N[C@H]1[C@@H](OP(=O)(O)O)O[C@H](CO)[C@@H](OC(=O)C[C@H](O)CCCCCCCCCCC)[C@@H]1OC(=O)C[C@H](O)CCCCCCCCCCC` [SDZ MRL 953], the “Release of TNF-α, IL-1β, IL-8, IL-6, and G-CSF” value [1] is given as “markedly reduced”.

With `CC(=O)Oc1ccccc1C(=O)O` [aspirin] the “Inhibition of PGE2 biosynthesis in cells (in words)” value (“Inhibition of PGE2 biosynthesis” below) (PGE2 biosynthesis) was “inhibited”.

For `CC(C)Cc1ccc(C(C)C(=O)O)cc1` (stereo not shown) [ibuprofen], the “Inhibition of PGE2 biosynthesis” value (PGE2 biosynthesis) was “inhibited”.

In the case of `COc1ccc2c(c1)c(CC(=O)O)c(C)n2C(=O)c1ccc(Cl)cc1` [indomethacin], the “Inhibition of PGE2 biosynthesis” value (PGE2 biosynthesis) is reported as “inhibited”.

In the case of lipopolysaccharide [LPS], the “LPS concentration able to induce IL-1b” value (IL-1β) is reported as 0.008 mg/mL and the “LPS concentration of maximum induction for TNFa” value (TNF-α) is reported as “around 0.2 mg/ml”.
